Columns and labels:
[1] = system: arterial actin-myosin interactions; assay: Inhibition of superprecipitation (antagonism of arterial actin-myosin interaction); format: biochemical; conditions: for Antag. of Actin-Myosin (percent inhibition of superprecipitation): six minute time-point; for antagonism of arterial actin-myosin interactions (in words): 'unlike' = does not antagonize as the compounds of the invention do
Procedure: (§1) The data reported herein was obtained at a six minute time-point rather than the 1.5, 5 and 12 minute time points indicated in the superprecipitation assay of the Silver et al. paper.
(§2) The following examples illustrate the preparation of a representative number of compounds of this invention. After each example, the Ca^+2 antagonist activity of the compound is presented in terms of percent relaxation of aortic tissue (P.R.) at 10^-5 M concentration. […] Inhibition of superprecipitation (Antag. of Actin-Myosin interaction) is expressed as percent inhibition (mean±standard error of the mean for at least 3 separate experiments) at a compound concentration. In the same manner, inhibition of myosin light chain phosphorylation (Antag. of MLCP) is expressed as a percent inhibition at a compound concentration. Similarly, the antihypertensive activity is reported in terms of millimeters mercury (mmHg) systolic blood pressure (B.P.) reduction at the stated time post 50 mg/kg oral dosing or other dosing as indicated.

[2] = system: spontaneously hypertensive rats; assay: Hypotensive effect on systolic blood pressure of spontaneously hypertensive rats; format: in vivo, rat; conditions: SHR, oral, 10 mg/kg, at 1.5 hours
[3] = system: isolated paced intact rabbit atria; assay: Cardiac depressant (negative inotropic) effect in isolated paced intact rabbit atria; format: cell-based; conditions: 3 Hz, 30° C.
Procedure: The potential for detrimental cardiac depressant (negative inotropic) effects of the compounds of this invention was assessed in isolated paced intact rabbit atria. Left and right atria (with nodal tissue excised) were suspended vertically in a jacketed (30° C.) organ bath containing 50 ml of PSS and aerated with 95% O2 /5% CO2. Muscles (N=5-9/compound) were stimulated at a frequency of 3 Hz with a WPI stimulator for a 60 minute equilibration period. Changes in isometric force were recorded as described for the aoritc smooth muscle experiments,supra. Following equilibration, the test compound (or as a control, the ethanol vehicle) was added to the organ bath in a cumulative manner from doses ranging from 10^-9 M to 10^-5 M (10^-5 M was the maximum dose which could be attained due to the depressant effect of ethanol) and effects on developed isometric force were determined. […]
The following examples illustrate the preparation of a representative number of compounds of this invention. […] Inhibition of superprecipitation (Antag. of Actin-Myosin interaction) is expressed as percent inhibition (mean±standard error of the mean for at least 3 separate experiments) at a compound concentration. In the same manner, inhibition of myosin light chain phosphorylation (Antag. of MLCP) is expressed as a percent inhibition at a compound concentration. […]

[4] = system: Ca^+2 -calmodulin dependent myosin light chain phosphorylation; assay: Inhibition of Ca+2-calmodulin dependent myosin light chain phosphorylation (MLCP); format: biochemical; conditions: 'unlike' = does not antagonize as the compounds of the invention do
Procedure: as §1, §2

SMILES	Antag. of Actin-Myosin (percent inhibition of superprecipitation) ([1]; 100 μM) [%]	B.P. (systolic blood pressure reduction) [2] [mm]	IC25 (concentration producing 25% inhibition of isometric force) [3] [µM]	Antag. of Actin-Myosin (percent inhibition of superprecipitation) ([1]; 50 μM) [%]	antagonism of arterial actin-myosin interactions (in words) [1]	antagonism of Ca^+2 -calmodulin dependent myosin light chain phosphorylation (in words) [4]
CC1=C(C(=O)OCCOc2ccccc2)C(c2c(F)c(F)c(F)c(F)c2F)C2=C(CNCC2=O)N1 (racemic) [Example 2, 1,4,5,6,7,8-Hexahydro-2-methyl-5-oxo-4-(pentafluorophenyl)-1,7-naphthyridine-3-carboxylic acid 2-phenoxyethyl ester]	72±2	39				
CC1=C(C(=O)OCCOc2ccccc2)C(c2c(F)c(F)c(F)c(F)c2F)C2=C(CNCC2=O)N1 (single isomer, unassigned; (+)) [Example 4, (+)-1,4,5,6,7,8-Hexahydro-2-methyl-5-oxo-4-(pentafluorophenyl)-1,7-naphthyridine-3-carboxylic acid 2-phenoxyethyl ester]	71		0.8	38		
CC1=C(C(=O)OCCOc2ccccc2)C(c2c(F)c(F)c(F)c(F)c2F)C2=C(CNCC2=O)N1 (single isomer, unassigned; (-)) [Example 3, (-)-1,4,5,6,7,8-Hexahydro-2-methyl-5-oxo-4-(pentafluorophenyl)-1,7-naphthyridine-3-carboxylic acid 2-phenoxyethyl ester]	76		> 10	65		
COc1ccc(CCN(C)CCCC(C#N)(c2ccc(OC)c(OC)c2)C(C)C)cc1OC (centres unmarked) [Verapamil, reference compound]					unlike	unlike
COC(=O)C1=C(C)NC(C)=C(C(=O)OC)C1c1ccccc1[N+](=O)[O-] [nifedipine, reference compound]					unlike	unlike
CCOC(=O)C1=C(C)NC(C)=C(C(=O)OC)C1c1cccc([N+](=O)[O-])c1 (centres unmarked) [nitrendipine, reference compound]					unlike	unlike
